From patent US20190350200A1, “SYNERGISTIC ANTIMICROBIAL COMPOSITIONS” (JUBILANT LIFE SCIENCES LIMITED, priority 2016, published 2019)

Test system: Malassezia furfur
Assay: Zone of inhibition, disc diffusion method
Format: cell-based
Settings: antimicrobial active alone, 37° C., 48 hrs; for zone of inhibition at […] strength / zone of inhibition at 0.5 % strength / zone of inhibition at 1 % strength / zone of inhibition at 2 % strength: Malassezia furfur; for zone of inhibition at […] strength: 0.25 % w/w
Experimental: The antimicrobial efficacy was determined by measuring zone of inhibition using disc diffusion method against E. Coli, Malassezia furfur, Pseudomonas, Aspergillus niger, Staphylococcus and Candida. […] The culture plates were incubated at 37° C. for 48 hrs and anti-microbial activity was evaluated by observing an area of no growth around the disc. An area of no growth around the swatch is known as a zone of inhibition.

| SMILES | zone of inhibition at […] strength [mm] | zone of inhibition at 0.5 % strength (0.5 % w/w) [mm] | zone of inhibition at 1 % strength (1 % w/w) [mm] | zone of inhibition at 2 % strength (2 % w/w) [mm] | Zone of inhibition (0.5 % w/w) [mm] | Zone of inhibition (1 % w/w) [mm] | Zone of inhibition (2 % w/w) [mm] | Zone of inhibition ([…] w/w) [mm] |
| --- | --- | --- | --- | --- | --- | --- | --- | --- |
| Cc1cc(C2CCCCC2)n(O)c(=O)c1 [Ciclopirox Olamine] | 18 | 18 | 20 | 22 |  |  |  |  |
| CC(C)(C)C(=O)C(Oc1ccc(Cl)cc1)n1ccnc1 (stereo not drawn) [Climbazole] | 20 | 40 | 40 | 42 |  |  |  |  |
| CC(=O)N1CCN(c2ccc(OCC3COC(Cn4ccnc4)(c4ccc(Cl)cc4Cl)O3)cc2)CC1 (stereo not drawn) [Ketoconazole] | 40 | 40 | 40 | 40 |  |  |  |  |
| Cc1cc(CC(C)CC(C)(C)C)n(O)c(=O)c1.NCCO (stereo not drawn) [Octopirox] |  |  |  |  | 14 | 18 | 20 | 10 |
| O=C(O)c1ccccc1O [Salicylic Acid] |  |  | 4 | 6 |  |  |  |  |
